Test results as given in patent US20240043396A1, “METHODS OF TREATING OCULAR FIBROTIC PATHOLOGIES” (Mayo Foundation for Medical Education and Research, priority 2021, published 2024).

Columns and labels:
Type in all cases: cell-based, human
ARPE-19 cells [1] = test: TGFβ-induced EMT in cultured RPE cells (morphology, qPCR of mesenchymal/profibrotic genes); conditions: ARPE-19, 5 ng/ml TGF-β1, 24 h, 0% FBS; 1 μM CTC-6 or 10 μM MS-9
Description: Cell culture: ARPE-19 cells were purchased from ATCC (Manassas, VA, USA) were cultured in Eagle's minimal essential medium (EMEM) containing 10% fetal bovine serum (FBS) and antibiotic-antimycotic (Thermo Fisher Scientific) unless otherwise noted.
qPCR analysis: ARPE-19 cells were plated on tissue culture dishes (Thermo Fisher Scientific, 60×15 mm) in EMEM containing 10% FBS and allowed to attach and grow for 24 h. Cells were stimulated with 5 ng/ml TGF-β1 and 10 μM MS-9 or 1 μM CTC-6 in EMEM containing 0% FBS for 24 h prior to RNA isolation using the RNeasy Plus Mini Kit (Qiagen, Hilden, Germany) according to the manufacturer's instructions. Isolated RNA (500 ng) was then used to synthesize cDNA using SuperScript VILO (Invitrogen, Carlsbad, CA, USA). Quantitative PCR (qPCR) was performed using FastStart Essential DNA Green Master and analyzed with LightCycler 96 (Roche, Basel, Switzerland). Data are expressed as a fold change by ΔΔCt relative to the level of the GAPDH housekeeping gene, and normalized to control.
As expected, TGFβ stimulated morphological changes consistent with EMT (FIG. 2A) and enhanced expression of ECM genes: COL1A1 and COL3A1, connective tissue growth factor (CTGF) and alpha-smooth muscle actin (ACTA2) (FIG. 2B).

ARPE-19 cells [2] = test: qPCR of profibrotic gene expression in ARPE-19 cells ±TGFβ
Description: Cell culture: The human RPE cell line ARPE-19 was purchased from ATCC and cultured in Dulbecco's Modified Eagle Medium/Nutrient Mixture F-12 (DMEM/F-12) supplemented with 2.50 mM L-Glutamine, 15 mM HEPES Buffer, 10% fetal bovine serum (FBS), and 1% Antibiotic-Antimycotic (Gibco), unless otherwise noted. Cells were maintained in a humidified 37° C., 5% CO2 incubator. All experiments were performed with cells at passage 3-6. Chemicals and Reagents: dimethyl sulfoxide (DMSO) was purchased from Fisher Scientific and used to solubilize fenoldopam and SCH 39166. 2-mercaptoethanol was purchased from Bio-Rad Laboratories and added to RLT buffer prior to RNA isolation, as per Qiagen instructions. Fenoldopam and SCH 39166 were purchased from Cayman Chemical Company. TGFβ was purchased from InvivoGen. Fenoldopam, like a majority of […], has a characteristically short half-life. To take this into account we changed media daily to assess the efficacy of fenoldopam to inhibit fibrotic activation in vitro. RNA Isolation/qPCR Analysis: ARPE-19 cells were plated into 12 well plates (100,000 cells/well) and allowed to attach. Media was removed and replaced with the media specified in the “Cell Culture” section above, minus FBS. Cells were treated for 24 hours ±TGFβ (10 ng/mL), 10 μM fenoldopam, and 3 μM SCH 39166. RNA was isolated using the RNeasy Plus Mini Kit (Qiagen) and the manufacturer's protocol. Isolated RNA was converted to cDNA using the SuperScript VILO cDNA Synthesis Kit (Invitrogen) and the PTC-200 Peltier Thermal Cycler (MJ Research). Quantitative PCR (qPCR) was performed using FastStart Essential DNA Green Master (Roche) and LightCycler 96 (Roche).

ARPE-19 cells [3] = test: LIVE/DEAD assay; conditions: ARPE-19, ±2% FBS, 10 μM fenoldopam, 4 days
Description: (§1) Cell culture: The human RPE cell line ARPE-19 was purchased from ATCC and cultured in Dulbecco's Modified Eagle Medium/Nutrient Mixture F-12 (DMEM/F-12) supplemented with 2.50 mM L-Glutamine, 15 mM HEPES Buffer, 10% fetal bovine serum (FBS), and 1% Antibiotic-Antimycotic (Gibco), unless otherwise noted. Cells were maintained in a humidified 37° C., 5% CO2 incubator. All experiments were performed with cells at passage 3-6. Proliferation and Live/Dead Assays: ARPE-19 cells were plated into 96-well plates (1,000 cells/well) and allowed to attach. Media was removed and replaced with the media specified in the “Cell Culture” section above, with reduced FBS. Cells were treated for four days ±2% FBS, and 10 μM fenoldopam, replacing media conditions every 24 hours for wells treated with fenoldopam. After four days, CellTiter-Fluor™ (Promega) was added to each well according to the manufacturer and measured on a Flexstation 3 (Molecular Devices) plate reader for the proliferation assay. For the LIVE/DEAD™ assay, each component of the kit (Thermo Fisher Scientific) was added, then cells were incubated for 30 minutes. Fluorescent images were then taken using a Cytation 5 imaging reader (BioTek) and quantified for cytotoxicity/viability.

ARPE-19 cells [4] = test: Fibronectin deposition (immunofluorescence); conditions: ARPE-19, ±TGFβ 10 ng/mL, 10 μM fenoldopam, 4 days
Description: Cell culture: The human RPE cell line ARPE-19 was purchased from ATCC and cultured in Dulbecco's Modified Eagle Medium/Nutrient Mixture F-12 (DMEM/F-12) supplemented with 2.50 mM L-Glutamine, 15 mM HEPES Buffer, 10% fetal bovine serum (FBS), and 1% Antibiotic-Antimycotic (Gibco), unless otherwise noted. Cells were maintained in a humidified 37° C., 5% CO2 incubator. All experiments were performed with cells at passage 3-6. Fibronectin Deposition: ARPE-19 cells were plated into 96-well plates (10,000 cells/well) and allowed to attach. Media was removed and replaced with the media specified in the “Cell Culture” section above, without FBS. Cells were treated for four days ±TGFβ (10 ng/mL), 10 μM fenoldopam, replacing media conditions every 24 hours for wells treated with fenoldopam. Cells were fixed with 10% neutral buffered formalin (Sigma-Aldrich) for 15 minutes. Cells were permeabilized with 0.25% Triton X-100 (Sigma-Aldrich) and blocked with 1% BSA for 1 hour. Cells were incubated with mouse monoclonal IgG3 primary antibodies against fibronectin (Santa Cruz Biotechnology), which were diluted 1:400 in 0.25% Triton X-100 (Sigma-Aldrich) with 1% BSA. Cells were incubated with primary antibodies either in 4° C. overnight or at room temperature for 2 hours. […] Immunofluorescence was measured using a Cytation 5 imaging reader (BioTek).

ARPE-19 cells [5] = test: Proliferation assay (CellTiter-Fluor); conditions: ARPE-19, ±2% FBS, 10 μM fenoldopam, 4 days
Description: as §1

ARPE-19 cells [6] = test: Wound healing (wound migration) assay; conditions: ARPE-19, ±TGFβ 10 ng/mL, 10 μM fenoldopam, 0-72 hours, media changed every 24 hours
Description: Cell culture: The human RPE cell line ARPE-19 was purchased from ATCC and cultured in Dulbecco's Modified Eagle Medium/Nutrient Mixture F-12 (DMEM/F-12) supplemented with 2.50 mM L-Glutamine, 15 mM HEPES Buffer, 10% fetal bovine serum (FBS), and 1% Antibiotic-Antimycotic (Gibco), unless otherwise noted. Cells were maintained in a humidified 37° C., 5% CO2 incubator. All experiments were performed with cells at passage 3-6. Wound Healing Assay: ARPE-19 cells were plated confluent into a 12-well plate (300,000 cells/well) and allowed to attach. Cells were exposed to a single scratch made with a p200 pipette tip. Media was removed and replaced with the media specified in the “Cell Culture” section above, without FBS. Cells were treated ±TGFβ (10 ng/mL), 10 μM fenoldopam replacing media conditions every 24 hours for wells treated with fenoldopam. Cells were imaged after treatment for 0, 24, 48, and 72 hours. Cells were imaged with an inverted phase-contract microscope and wound area was measured using ImageJ software as previously described.

## NCC1OC(c2ccncc2)Cc2c1ccc(O)c2O (centres unmarked) [CTC-6]
ARPE-19 cells [1]
  markers of EMT (morphology; COL1A1, COL3A1, CTGF, ACTA2 expression): blocked markers of EMT

## CN1CCc2cc(Cl)c(O)cc2[C@H]2c3ccccc3CC[C@@H]21 [SCH 39166]
ARPE-19 cells [2]; ARPE-19, TGFβ 10 ng/mL + 3 μM SCH 39166, 24 hours
  effect of D5 antagonist alone in the presence of TGFβ on profibrotic gene expression: no effect
ARPE-19 cells [2]; ARPE-19, TGFβ 10 ng/mL + 10 μM fenoldopam + 3 μM SCH 39166, 24 hours
  effect of D5 antagonist on the antifibrotic effects of fenoldopam (profibrotic gene expression): surmount the antifibrotic effects of fenoldopam

## Oc1ccc(C2CNCCc3c2cc(O)c(O)c3Cl)cc1 (centres unmarked) [fenoldopam]
ARPE-19 cells [3]
  antifibrotic response in live/dead assay: robust antifibrotic response
ARPE-19 cells [4]
  antifibrotic response in fibronectin deposition assay: robust antifibrotic response
ARPE-19 cells [2]; ARPE-19, TGFβ 10 ng/mL, 10 μM fenoldopam, 24 hours
  expression of COL1A1, ACTA2, and FN1 compared to TGFβ exclusively: significant decrease
ARPE-19 cells [5]
  antifibrotic response in proliferation assay: robust antifibrotic response
ARPE-19 cells [6]
  antifibrotic response in wound migration assay: robust antifibrotic response
